# Source: patent US20240383875A1, “Benzimidazole Pyridine Derivatives” (Hoffmann-La Roche Inc., priority 2022, published 2024)
# Tests used:
# Assay type in all cases: biochemical
# [1] = target: SIK1 (Homo sapiens, UniProt P57059); assay: Enzymatic activity assay SIK1, RapidFire mass spectrometry (phosphorylation of CHK-peptide); settings: RapidFire MS, inhibition of SIK1; read-out: SIK1 RF IC50
# Procedure: (§1) Assay description SIK1-3, RapidFire:
# (§2) In the presence of SIK2 (resp. SIK1 or SIK3) and ATP the CHK-peptide ([…] with C-terminal arginine amide modification) were phosphorylated at one of the four feasible serine's. Only one phosphorylation is observed under the assay conditions. 60 nl of each compound dilution series (12 point; dilution factor 3, generally 30 μM to 170 pM) in DMSO were transferred by acoustic dispensing to the assay plate and 30 min pre-incubated (ambient temperature) after the addition of 5 μl SIK1 (5 nM) resp. 5 μl SIK2 (0.5 nM) or 7 μl SIK3 (1.5 nM) in assay-buffer (12.5 mM HEPES (pH 7.0), 10 mM magnesium acetate, 0.005% BSA). 10 μM CHK-peptide solution and 5 μl 100 μM ATP for SIK1 & SIK2 resp. 3 μl for SIK3 in assay-buffer were added and incubated ambient for 45 min. 40 μl 0.125% formic acid in water were added to quench the reaction. RapidFire (RF) Mass Spectrometry was utilized for data generation as described below. The multiple charged species (3-5 charges) for the phosphorylated and non-phosphorylated form measured by MRM (Multiple Reaction Monitoring; API5000 or 6500+) or EIC (Extracted Ion Current; QToF) were summed up and the ratio calculated (sum phosphorylated species/sum all species) for data evaluation. Normalization was performed by Genedata software based on the non-inhibition control DMSO and the commercially available SIK inhibitor @ 1 μM YKL-05-099 (CAS number 1936529-65-5). The results of the assay are expressed in half-maximal inhibitory concentrations (IC50s) and are summarized below in Table 1.
# (§3) Samples were aspirated by vacuum for max. 600 ms and loaded to C4-cartridge (Agilent; #G9203A) for 3000 ms@1.5 ml/min with 0.1% formic acid in water. Afterwards samples were transferred to the APT5000 (APT6500+) or QToF mass spectrometer for 4000 ms@1.25 ml/min with 90% acetonitrile; 10% water; 0.007% TFA; 0.093 formic acid. The cartridge was reconditioned for additional 500 ms with 0.1% formic acid in water
# (§4) All MS analyses using the following MS-setup in MRM mode: Electrospray positive; Ion Spray Voltage: 4000V; Temperature: 550° C.; Collision Gas: 5; Curtain Gas: 15; Gas1: 40; Gas 2: 42; EP: 10
# (§5) MS-Setup Agilent QToF 6545
# (§6) All MS analyses using the following MS-setup in Mode MS: Dual AJS Electrospray positive; VCap: 3000V; Drying & Sheath gas: 340° C.@81/min; Nebulizer: 60 psig; Nozzle Voltage: 2000V; Fragmentor: 130V; Skimmer: 35V; Oct1 RF Vpp: 700V; Ref masses on@5spectra/s
# [2] = target: SIK2 (Homo sapiens, UniProt Q9H0K1); assay: Enzymatic activity assay SIK2, RapidFire mass spectrometry (phosphorylation of CHK-peptide); settings: RapidFire MS, inhibition of SIK2; read-out: SIK2 RF IC50
# Procedure: as §1
# as §2, with “Only one phosphorylation is observed under the assay conditions. 60 nl of each compound dilution series (12 point; dilution factor 3, generally 30 μM to 170 pM) in DMSO were transferred by acoustic dispensing to the assay plate and 30 min pre-incubated (ambient temperature) after the addition of 5 μl SIK1 (5 nM) resp.” left out, “1936529-65-5).” for “1936529-65-5). The results of the assay are expressed in half-maximal inhibitory concentrations (IC50s) and are summarized below in Table 1.”
# as §3, §4, §5, §6
# [3] = target: SIK3 (Homo sapiens, UniProt Q9Y2K2); assay: Enzymatic activity assay SIK3, RapidFire mass spectrometry (phosphorylation of CHK-peptide); settings: RapidFire MS, inhibition of SIK3; read-out: SIK3 RF IC50
# Procedure: as §1, §2, §3, §4, §5, §6
# Chain of SIK3 (Q9Y2K2 whole entry): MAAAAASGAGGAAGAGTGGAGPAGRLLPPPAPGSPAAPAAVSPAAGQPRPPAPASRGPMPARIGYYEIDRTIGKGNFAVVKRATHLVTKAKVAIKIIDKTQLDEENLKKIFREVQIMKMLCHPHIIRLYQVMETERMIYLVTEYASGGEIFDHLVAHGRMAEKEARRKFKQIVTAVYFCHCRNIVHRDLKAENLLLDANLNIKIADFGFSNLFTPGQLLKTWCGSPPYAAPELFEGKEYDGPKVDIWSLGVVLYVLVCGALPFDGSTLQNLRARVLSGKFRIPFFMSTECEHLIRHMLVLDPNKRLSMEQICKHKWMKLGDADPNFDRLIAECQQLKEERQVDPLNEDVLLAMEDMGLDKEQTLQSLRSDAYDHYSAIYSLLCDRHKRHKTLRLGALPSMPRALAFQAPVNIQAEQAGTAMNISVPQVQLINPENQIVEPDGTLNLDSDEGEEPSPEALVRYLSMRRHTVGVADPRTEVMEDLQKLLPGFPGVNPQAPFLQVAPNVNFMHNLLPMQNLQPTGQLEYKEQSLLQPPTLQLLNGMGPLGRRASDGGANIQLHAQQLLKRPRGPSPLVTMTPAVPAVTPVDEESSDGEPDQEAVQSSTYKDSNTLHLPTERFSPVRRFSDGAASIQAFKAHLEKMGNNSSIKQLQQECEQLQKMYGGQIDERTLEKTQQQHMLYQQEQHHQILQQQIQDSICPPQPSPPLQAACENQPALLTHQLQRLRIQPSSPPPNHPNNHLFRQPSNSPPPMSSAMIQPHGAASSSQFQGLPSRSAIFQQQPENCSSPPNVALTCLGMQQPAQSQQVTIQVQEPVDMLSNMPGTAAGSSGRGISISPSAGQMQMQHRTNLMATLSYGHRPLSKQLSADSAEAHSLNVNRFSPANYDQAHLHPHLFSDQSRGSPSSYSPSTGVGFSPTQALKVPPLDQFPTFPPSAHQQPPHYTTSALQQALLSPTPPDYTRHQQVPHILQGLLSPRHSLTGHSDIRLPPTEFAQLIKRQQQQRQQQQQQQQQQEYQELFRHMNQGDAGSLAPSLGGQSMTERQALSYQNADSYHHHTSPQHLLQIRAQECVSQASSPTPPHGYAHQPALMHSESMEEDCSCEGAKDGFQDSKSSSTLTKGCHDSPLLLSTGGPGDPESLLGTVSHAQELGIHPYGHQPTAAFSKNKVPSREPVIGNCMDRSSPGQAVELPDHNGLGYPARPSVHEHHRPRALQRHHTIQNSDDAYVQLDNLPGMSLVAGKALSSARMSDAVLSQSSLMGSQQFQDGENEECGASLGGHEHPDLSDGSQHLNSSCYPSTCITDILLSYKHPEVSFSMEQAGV
# Chain of SIK1 (P57059 whole entry): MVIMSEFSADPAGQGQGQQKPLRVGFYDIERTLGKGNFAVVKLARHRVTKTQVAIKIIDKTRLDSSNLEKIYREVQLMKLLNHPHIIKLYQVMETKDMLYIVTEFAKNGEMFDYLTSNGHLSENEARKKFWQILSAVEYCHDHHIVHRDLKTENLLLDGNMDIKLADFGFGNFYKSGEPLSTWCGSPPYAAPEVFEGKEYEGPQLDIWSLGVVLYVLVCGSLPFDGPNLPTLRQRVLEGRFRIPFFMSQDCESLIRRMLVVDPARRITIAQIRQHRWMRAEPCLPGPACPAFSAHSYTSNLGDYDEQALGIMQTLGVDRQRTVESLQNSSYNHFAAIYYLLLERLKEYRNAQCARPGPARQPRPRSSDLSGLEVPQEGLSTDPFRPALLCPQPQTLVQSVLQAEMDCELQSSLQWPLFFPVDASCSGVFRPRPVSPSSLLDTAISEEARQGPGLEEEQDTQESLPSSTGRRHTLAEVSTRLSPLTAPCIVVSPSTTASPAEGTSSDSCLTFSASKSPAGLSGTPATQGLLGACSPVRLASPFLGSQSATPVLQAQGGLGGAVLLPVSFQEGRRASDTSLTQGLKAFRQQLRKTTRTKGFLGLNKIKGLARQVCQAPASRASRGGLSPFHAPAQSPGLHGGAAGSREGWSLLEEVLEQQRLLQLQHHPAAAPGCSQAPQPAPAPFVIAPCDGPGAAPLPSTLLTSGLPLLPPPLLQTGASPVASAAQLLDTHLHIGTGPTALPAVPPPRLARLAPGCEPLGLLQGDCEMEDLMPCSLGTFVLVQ
# Chain of SIK2 (Q9H0K1 whole entry): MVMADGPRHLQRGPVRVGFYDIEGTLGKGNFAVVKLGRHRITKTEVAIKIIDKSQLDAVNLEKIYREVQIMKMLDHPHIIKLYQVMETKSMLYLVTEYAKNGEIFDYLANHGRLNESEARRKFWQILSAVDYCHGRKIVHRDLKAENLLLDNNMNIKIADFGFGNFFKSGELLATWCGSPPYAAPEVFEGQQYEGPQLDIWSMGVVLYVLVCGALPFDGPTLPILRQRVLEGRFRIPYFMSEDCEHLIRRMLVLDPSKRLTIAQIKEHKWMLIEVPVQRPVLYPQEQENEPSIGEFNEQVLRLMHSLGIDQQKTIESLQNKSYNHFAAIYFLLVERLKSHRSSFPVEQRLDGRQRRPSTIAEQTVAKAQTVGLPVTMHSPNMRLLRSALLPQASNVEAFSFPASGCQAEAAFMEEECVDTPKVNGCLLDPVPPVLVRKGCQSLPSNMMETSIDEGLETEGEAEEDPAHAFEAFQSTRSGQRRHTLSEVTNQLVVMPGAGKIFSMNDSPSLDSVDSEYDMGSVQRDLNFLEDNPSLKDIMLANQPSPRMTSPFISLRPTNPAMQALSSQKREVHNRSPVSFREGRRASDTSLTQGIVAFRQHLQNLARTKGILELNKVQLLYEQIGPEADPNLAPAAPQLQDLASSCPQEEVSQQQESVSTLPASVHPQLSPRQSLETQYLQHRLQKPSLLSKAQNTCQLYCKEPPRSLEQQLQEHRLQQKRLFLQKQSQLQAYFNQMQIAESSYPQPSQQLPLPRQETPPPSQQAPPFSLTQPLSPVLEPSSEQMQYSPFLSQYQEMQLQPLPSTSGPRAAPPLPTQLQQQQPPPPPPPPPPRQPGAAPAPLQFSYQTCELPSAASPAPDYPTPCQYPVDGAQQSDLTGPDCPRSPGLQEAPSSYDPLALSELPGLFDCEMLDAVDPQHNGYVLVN
SMILES,IC50 [1] [µM],IC50 [2] [µM],IC50 [3] [µM]
"Cc1ccc(Nc2ccc3c(c2)ncn3-c2ccc(C(C)O)c(-c3cc(C(F)F)ncc3C)n2)nn1 (stereo not drawn) [Example 335, 1-[2-[2-(difluoromethyl)-5-methyl-4-pyridyl]-6-[5-[(6-methlpyridazin-3-yl)amino]benzimidazol-1-yl]-3-pyridyl]ethanol]",0.01,0.001,0.0003
"Cc1ccc(Nc2ccc3c(c2)ncn3-c2ccc(C(C)O)c(-c3cc(C(F)(F)F)nn3C)n2)nn1 (stereo not drawn) [Example 122, 1-[6-[5-[(6-Methylpyridazin-3-yl)amino]benzimidazol-1-yl]-2-[2-methyl-5-(trifluoromethyl)pyrazol-3-yl]-3-pyridyl]ethanol]",3.46,0.033,0.0069
"Cc1ccc(Nc2ccc3ncn(-c4ccc(C(O)C(F)F)c(-n5nc(C#N)cc5C)n4)c3c2)nn1 (stereo not drawn) [Example 199, 1-[3-(2,2-Difluoro-1-hydroxy-ethyl)-6-[6-[(6-methylpyridazin-3-yl)amino]benzimidazol-1-yl]-2-pyridyl]-5-methyl-pyrazole-3-carbonitrile]",0.245,0.171,0.371
"Cc1ccc(Nc2ccc3c(c2)ncn3-c2ccc(C(C)O)c(-c3cc(C(F)(F)F)ncc3C)n2)nn1 (stereo not drawn) [Example 332, 1-[6-[5-[(6-methylpyridazin-3-yl)amino]benzimidazol-1-yl]-2-[5-methyl-2-(trifluoromethyl)-4-pyridyl]-3-pyridyl]ethanol]",0.316,0.0053,0.0028
"Cc1ccc(Nc2ccc3ncn(-c4ccc(C(C)O)c(N5CC[C@H]6NCC[C@@H]65)n4)c3c2)nn1 (stereo partly drawn) [Example 126, 1-[6-[6-[(6-Methylpyridazin-3-yl)amino]benzimidazol-1-yl]-2-[(3aS,6aR)-2,3,3a,5,6,6a-hexahydro-1H-pyrrolo[3,2-b]pyrrol-4-yl]-3-pyridyl]ethanol; formic acid]",0.065,0.0745,0.228
"COc1cc2ncn(-c3ccc(C(C)O)c(-c4cccc(Cl)c4)n3)c2cc1OC (stereo not drawn) [Example 19, 1-(2-(3-Chlorophenyl)-6-(5,6-dimethoxy-1H-benzo[d]imidazol-1-yl)pyridin-3-yl)ethan-1-ol]",0.068,0.0265,0.116
Cc1ccc(Nc2ccc3ncn(-c4ccc(C(C)O)c(-n5nc(OC(F)F)cc5C(F)F)n4)c3c2)nn1 (stereo not drawn) [Example 405],0.039,0.0198,0.15
"Cc1ccc(Nc2ccc3ncn(-c4ccc(C(C)O)c(-n5nc(C#N)c6c5CCN(C)C6)n4)c3c2)nn1 (stereo not drawn) [Example 291, 1-[3-(1-hydroxyethyl)-6-[6-[(6-methylpyridazin-3-yl)amino]benzimidazol-1-yl]-2-pyridyl]-5-methyl-6,7-dihydro-4~{H}-pyrazolo[4,3-c]pyridine-3-carbonitrile]",0.001,0.0012,0.0119
"COCCOCCOCCOCCOCCOCCOCCOc1ccc(Nc2ccc3c(c2)ncn3-c2ccc(C(C)O)c(-n3nc(C#N)cc3C)n2)nn1 (stereo not drawn) [Example 293, 1-[3-(1-hydroxyethyl)-6-[5-[[6-[2-[2-[2-[2-[2-[2-(2-methoxyethoxy)ethoxy]ethoxy]ethoxy]ethoxy]ethoxy]ethoxy]pyridazin-3-yl]amino]benzimidazol-1-yl]-2-pyridyl]-5-methyl-pyrazole-3-carbonitrile]",0.132,0.006,0.0028
"Cc1ccc(Nc2ccc3c(c2)ncn3-c2ccc(C(C)O)c(N3CCNC4(CC4)C3)n2)nn1 (stereo not drawn) [Example 329, 1-[2-(4,7-diazaspiro[2.5]octan-7-yl)-6-[5-[(6-methylpyridazin-3-yl)amino]benzimidazol-1-yl]-3-pyridyl]ethanol]",1.74,0.059,0.01

# Continued, values first:
IC50 [1] [µM],IC50 [2] [µM],IC50 [3] [µM],SMILES
0.013,0.0099,0.0059,"Cc1cc(C#N)nn1-c1nc(-n2cnc3cc(Nc4ccon4)ccc32)ccc1C(C)O (stereo not drawn) [Example 123, 1-[3-(1-Hydroxyethyl)-6-[5-(isoxazol-3-ylamino)benzimidazol-1-yl]-2-pyridyl]-5-methyl-pyrazole-3-carbonitrile]"
0.04,0.0072,0.0041,"Cc1cc(C#N)nn1-c1nc(-n2cnc3cc(NC(=O)C4CC4)ccc32)ccc1C(C)O (stereo not drawn) [Example 327, N-[1-[6-(3-cyano-5-methyl-pyrazol-1-yl)-5-(1-hydroxyethyl)-2-pyridyl]benzimidazol-5-yl]cyclopropanecarboxamide]"
0.024,0.0166,0.0549,"Cc1ccc(Nc2cc3c(cc2F)ncn3-c2ccc(C(C)O)c(-n3nc(C#N)cc3C)n2)nn1 (stereo not drawn) [Example 94, 1-[6-[5-Fluoro-6-[(6-methylpyridazin-3-yl)amino]benzimidazol-1-yl]-3-(1-hydroxyethyl)-2-pyridyl]-5-methyl-pyrazole-3-carbonitrile]"
0.767,0.132,0.0979,"Cc1cc(C#N)nn1-c1nc(-n2cnc3cc(N4CCN(C5COC5)CC4)ccc32)ccc1C(C)O (stereo not drawn) [Example 67, 1-[3-(1-Hydroxyethyl)-6-[5-[4-(oxetan-3-yl)piperazin-1-yl]benzimidazol-1-yl]-2-pyridyl]-5-methyl-pyrazole-3-carbonitrile]"
0.45,0.181,0.0661,"Cc1cc(C#N)nn1-c1nc(-n2cnc3cc(NC4CC(=O)N(C)C4)ccc32)ccc1C(C)O (stereo not drawn) [Example 161, 1-[3-(1-Hydroxyethyl)-6-[5-[(5-keto-1-methyl-pyrrolidin-3-yl)amino]benzimidazol-1-yl]-2-pyridyl]-5-methyl-pyrazole-3-carbonitrile]"
0.049,0.047,0.606,"Cc1cc(C#N)nn1-c1nc(-n2cnc3ccc(OC4CCN(C5COC5)CC4)cc32)ccc1C(C)O (stereo not drawn) [Example 114, 1-[3-(1-Hydroxyethyl)-6-[6-[[1-(oxetan-3-yl)-4-piperidyl]oxy]benzimidazol-1-yl]-2-pyridyl]-5-methyl-pyrazole-3-carbonitrile]"
7.09,0.0724,0.0197,"Cc1ccc(Nc2ccc3c(c2)ncn3-c2ccc([C@@H](C)O)c(-n3nc(C(F)F)cc3C)n2)nn1 [Example 230, (1R)-1-[2-[3-(Difluoromethyl)-5-methyl-pyrazol-1-yl]-6-[5-[(6-methylpyridazin-3-yl)amino]benzimidazol-1-yl]-3-pyridyl]ethanol]"
0.319,0.076,0.0341,"Cc1cc(C#N)nn1-c1nc(-n2cnc3cc(OC4CCN(C5COC5)CC4)ccc32)ccc1C(C)O (stereo not drawn) [Example 113, 1-[3-(1-Hydroxyethyl)-6-[5-[[1-(oxetan-3-yl)-4-piperidyl]oxy]benzimidazol-1-yl]-2-pyridyl]-5-methyl-pyrazole-3-carbonitrile]"
0.391,0.007,0.0018,"Cc1ccc(Nc2ccc3c(c2)ncn3-c2ccc(C(O)C(F)F)c(-n3nc(C#N)cc3C)n2)nn1 (stereo not drawn) [Example 198, 1-[3-(2,2-Difluoro-1-hydroxy-ethyl)-6-[5-[(6-methylpyridazin-3-yl)amino]benzimidazol-1-yl]-2-pyridyl]-5-methyl-pyrazole-3-carbonitrile]"
